“Also recorded” adds a separate entry of the source.
How the values were obtained:
DLBCL patients = assay: Phase I trial in DLBCL patients: glucocorticoid cohorts, dose-limiting toxicities (DLT); assay type: in vivo, human; details: for Safety assessment of cohort: DLBCL cohorts, antibody 5/15/60 μg/m2/d with glucocorticoid medication
Protocol: A Phase I clinical trial was performed in patients with various B-NHL including DLBCL to evaluate the CD19×CD3 bispecific antibody construct in DLBCL patients. Patients were treated for 4-8-weeks by continuous i.v. administration of the antibody with the following step-wise dosing regimen: first week at 5 μg/m^2/d, second week at 15 μg/m^2/d and for the remaining treatment period at 60 μg/m^2/d.
Two cohorts each with 6 DLBCL patients were enrolled. The two cohorts solely differed by the dose and schedule of the glucocorticoid medication administered at the beginning of the antibody infusion for mitigation of adverse events.
Out of the twelve patients, 5 were male and 7 female. The median age was 57 years (range from 24 to 78 years). Patients had received a median of 4 prior regimens (range from 2-6). All patients had been exposed to rituximab. Eight of the 12 patients had undergone ASCT. International prognostic index (IPI) at screening ranged from 1 to 3 with a median of 2.

[1] = cited from earlier work
[2] = system: patients treated with blinatumomab; assay: Dexamethasone prophylaxis to prevent neurological adverse events during blinatumomab treatment; assay type: in vivo, human; details: Patient 108-010, trial 103-104, DLBCL; as other patients (20 mg dexamethasone 12 h and 1 h before) plus 100 mg prednisolone one hour before start of infusion
Protocol: Besides the therapeutic use of dexamethasone to mitigate neurological adverse events, dexamethasone was also used as prophylaxis in order to prevent neurological adverse events.
(§1) Each of the following 5 patients in trial 103-104 (all with DLBCL) were treated with blinatumomab continuous infusion at 5 μg/m2/d for the 1st week, then 15 μg/m2/d for the 2nd week, and then 60 μg/m2/d for the remaining treatment period that could an additional 2-6 weeks.

[3] = system: patients with B cell malignancies; details: cited from earlier work
lymphoma target cells = details: cited from earlier work
patients with B-NHL = assay: Neurological/psychiatric adverse events under blinatumomab continuous infusion; assay type: in vivo, human
Protocol: For the clinical trials in connection with the application of a CD19×CD3 bispecific single chain antibody for the treatment of tumorous mass of lymph node tissue and/or extranodal lymphoma caused by DLBCL, the present inventors had to develop a treatment regime which was efficient and would be well tolerated by most of the patients. To this end, the present inventors applied a step-wise application of a CD19×CD3 bispecific single chain antibody in that 5/15/60 μg/m^2/24 h was administered to patients. […] Also contemplated in the step-wise administration of a CD19×CD3 bispecific single chain antibody is a treatment regime using two of the dosages, such as 5/15 μg/m^2/24 h, 5/60 μg/m^2/24 h, or 15/60 μg/m^2/24 h for the duration of the patient's treatment. The appropriate dosage can be selected by the clinician on the basis of efficacy, tolerability and safety with a minimum of adverse effects in the patient.

[4] = system: malignant CD19 positive lymphocytes; assay: Tumour response to blinatumomab in patients given dexamethasone prophylaxis; assay type: in vivo, human
From the text: By “complete response” is intended an absence of clinically detectable disease with normalization of any previously abnormal imaging studies such as radiographic studies. Such a response preferably persists for at least 4 to 8 weeks, sometimes 6 to 8 weeks or more than 8, 10, 12, 14, 16, 18 or 20 weeks or longer, following treatment according to the invention. Alternatively, an improvement in the disease may be categorized as being a partial response.
Detailed remission and response definitions for NHL patients are used according to Cheson et al., 1999, J Clin Oncol. April; 17(4):1244
By “partial response” is intended at least about a 50% decrease in all measurable tumor burden (i.e., the number of malignant cells present in the patient, or the measured bulk of tumor masses) in the absence of new lesions and persisting for 4 to 8 weeks or more than 8, 10, 12, 14, 16, 18 or 20 weeks or longer. A “complete response” does, however, not necessarily indicate that a disease has been cured, since a patient may relapse. However, if so, the patient can again be treated with a composition comprising a CD19×CD3 bispecific antibody as described herein.
as §1

[5] = non-Hodgkin's lymphoma patients

In the case of `C[C@@H]1C[C@H]2[C@@H]3CCC4=CC(=O)C=C[C@]4(C)[C@@]3(F)[C@@H](O)C[C@]2(C)[C@@]1(O)C(=O)CO` [Dexamethasone], the “Safety assessment of cohort” value (DLBCL patients) is reported as “considered safe”, the DLT (DLBCL patients; prophylactic dexamethasone cohort: 3×8 mg at start of infusion or dose increase, 3×6 mg or 3×4 mg on following 2 days, first two patients) is reported as “one of the first two patients having a DLT” and the DLT (DLBCL patients; “early dexamethasone” schedule: 20 mg at −12 to −6 hours and −1 hour, 3×8 mg during following 2 days, total of 5 DLBCL patients) is reported as “no DLT was observed”.

For `C[C@]12CCC(=O)C=C1CC[C@@H]1[C@@H]2[C@@H](O)C[C@@]2(C)[C@H]1CC[C@]2(O)C(=O)CO` [Hydrocortisone], the Biologic half-life [1] is listed as 8-12 hrs.

In the case of `C[C@H]1C[C@@H]2[C@H]([C@@H](O)C[C@@]3(C)[C@H]2CC[C@]3(O)C(=O)CO)[C@@]2(C)C=CC(=O)C=C12` [Methylprednisolone], the Biologic half-life [1] is given as 18-36 hrs.

In the case of `C[C@]12C=CC(=O)C=C1CC[C@@H]1[C@@H]2[C@@H](O)C[C@@]2(C)[C@H]1CC[C@]2(O)C(=O)CO` [Prednisolone], the “Discontinuation due to neurological/psychiatric adverse events” value [2] is reported as “did not have to discontinue”, the “Safety assessment of cohort” value (DLBCL patients) is reported as “considered safe” and the DLT (DLBCL patients; prednisolone DLBCL cohort: 100 mg prednisolone 1 hour prior to start, antibody 5/15/60 μg/m2/d) is reported as “just one DLT (reversible CNS event grade 3)”. The Biologic half-life [1] was 18-36 hrs.

For `C[C@]12C=CC(=O)C=C1CC[C@@H]1[C@@H]2C(=O)C[C@@]2(C)[C@H]1CC[C@]2(O)C(=O)CO` [Prednisone], the Biologic half-life [1] is listed as 18-36 hrs.

In the case of Blinatumomab, the “Patients with early neurological reaction (confusion, ataxia, speech disorder, disorientation)” value ([3]; escalating doses as bolus infusions, B cell malignancies, retrospective analysis) is listed as 7 out of 22, the Cytokine release ([3]; patient with B-CLL, 20 minute-infusions of 3 and 10 microgram, WO 99/54440) is listed as “release of TNF, IL-6 and IL-8 has been found” and the “Dose leading to elimination of lymphoma target cells in blood (doses as low as)” value (lymphoma target cells; continuously administered over four weeks, non-Hodgkin's lymphoma patients) is listed as 0.005 milligrams per square meter per day. The “Patients with tumor regression” value (lymphoma target cells; dose level 0.06 milligrams/m^2/d) was “all seven patients”, the “Dose level at which partial and complete tumor regressions were first observed” value (lymphoma target cells; [5]) was 0.015 milligrams/m^2/d and the “Tumor cells in bone marrow and liver” value (lymphoma target cells; [5]) was “clearance of tumor cells from bone marrow and liver”. The “Adverse effects, in particular neurological/psychiatric events, with step-wise application” value (patients with B-NHL; DLBCL patients, step-wise 5/15/60 μg/m2/24 h) was “reduced in number, ameliorated and even prevented”, the Neurological adverse events (patients with B-NHL; Patient 109-036, follicular lymphoma, starting day 11, four days after step from 5 to 60 μg/m2/d) was “neurological adverse events (tremor and apraxia)” and the Neurological adverse events (patients with B-NHL; Patient 109-038, DLBCL, 5/15/60 μg/m2/d, day 15) was “developed intention tremor”. The Neurological adverse events (patients with B-NHL; Patient 109-039, MCL, 5/15/60 μg/m2/d, day 17) was “developed tremor and slight speech disturbance”, the “Treatment stop due to neurological/psychiatric adverse events” value (patients with B-NHL; Patient 135-001, DLBCL, day 4 after step to 60 μg/m2/d, too fast to intervene with dexamethasone) was “had to stop due to neurological/psychiatric adverse events” and the Neurological adverse events (patients with B-NHL; Patient 153-002, MCL, 5/15/60 μg/m2/d, day 4) was “developed slight speech problems”. For the same compound, the “Treatment stop due to neurological adverse event” value (patients with B-NHL; Patient 153-002, MCL, day 22, paresis disappeared without intervention) was “had to stop treatment due to paresis”, the Tumour response ([4]; DLBCL patients with “early dexamethasone” schedule, Phase I) was “objective responses have been observed” and the Tumour response ([4]; Patient 155-001, relapsed ALL, blinatumomab 15 μg/m2/d 16 days, dexamethasone prophylaxis 8 mg) was “complete remission”. The Tumour response ([4]; patient with ALL, blinatumomab 15 μg/m2/d, dexamethasone prophylaxis days 1-3) was “complete remission” and the “Tumour response of the lymphoma” value ([4]; trial 103-104, DLBCL, blinatumomab 5/15/60 μg/m2/d, 20 mg dexamethasone prophylaxis, one patient per block) was “objective response; also recorded: complete remission”.

Source: patent US10130638B2, “Prevention of adverse effects caused by CD3 specific binding domains” (AMGEN RESEARCH (MUNICH) GMBH, priority 2010, dated 2018)
